Test results from patent US20220087946A1, “COMPOSITIONS, METHODS, SYSTEMS AND/OR KITS FOR PREVENTING AND/OR TREATING NEOPLASMS” (Research Cancer Institute of America, priority 2017, published 2022).

Key:
[1] = test system: OVCAR 3 Cancer cells; test: Nano formulations in animals with implanted tumor: side effects; settings: mouse, in vivo
Experimental: Animals—Immunodeficient, female athymic mice aged 5-6 weeks and weighing between 18 and 20 g were purchased from Taconic Biosciences (Albany, N.Y.). All animal studies were conducted at the animal facility of the Veteran Affairs Medical Center, Albany, N.Y. in accordance with and approved by institutional guidelines for humane animal treatment and according to the current guidelines. Mice were maintained under specific pathogen-free conditions and housed under controlled conditions of temperature (20-24° C.) and humidity (60-70%) and 12 h light/dark cycle with ad libitum access to water and food. Mice were allowed to acclimatize for 5 d prior to the start of study.
Treatment—OVCAR 3 Cancer cells (1×10^6) were implanted subcutaneously in right flank of each animal. In the first set of experiments, control, free Quercetin (3 mg/kg), NPS-quercetin(3 mg/kg), and FA-NPs-quercetin (3 mg/kg) were injected subcutaneously to the mice everyday (for 14 days). The control was PBS, after humane sacrifice of animals at 14 days, tumors were harvested and amount of QC was measured.

[2] = cited from earlier work

In the case of `O=c1c(O)c(-c2ccc(O)c(O)c2)oc2cc(O)cc(O)c12` [Quercetin, quercetin], the “adverse toxic effect on the health of tumor bearing mice” value [1] is listed as “does not have any adverse toxic effect” and the water solubility [2] is listed as “not water soluble”.
